Several values for one entry are separate records, joined by “and”; a condition that tells them apart may be missing. Equal values may be shown once. Read-outs that look alike come from different tables or passages of the source. Marks after values point to notes of the source that are not given here.
Key:
[1] = test system: 3T3-L1 adipocytes; experiment: Glucose uptake assay (2-deoxy-D-[3H]-glucose) in 3T3-L1 adipocytes; type: cell-based; conditions: for EC50: read-out: Insulin EC50
[2] = Diet-induced obesity (DIO) mice study: blood glucose, insulin, plasma lipids, body weight, food intake; type: in vivo, C57BL/6J male mice; conditions: Atorvastatin 20 mg/kg, test articles tid po 10 mL/kg + ad libitum
[3] = type: in vivo, female BALB/c nude mice
Description: At the time of routine monitoring, the animals were daily checked for any effects of tumor growth and treatments on normal behavior such as mobility, food and water consumption (by looking only), body weight gain/loss (body weights were measured twice weekly), eye/hair matting and any other abnormal effect as stated in the protocol. Death and observed clinical signs were recorded on the basis of the numbers of animals within each subset.
Animal body weight was monitored regularly as an indirect measure of toxicity (FIG. 54A-B). No group lost weight as a result of test article administration, except the prophylactic KHGD Group 4 which was found with sign of emaciation and dehydration due to the 3 days' whole-day supply of KHGD.

[4] = test system: MDA-MB-436 human breast cancer; experiment: Subcutaneous MDA-MB-436 human breast cancer xenograft model, tumor volume and weight; type: in vivo, female BALB/c nude mice
Description: The in vivo anti-tumor efficacy of KHJ, KH103, and KHGD in the subcutaneous MDA-MB-436 human breast cancer model in female BALB/c nude mice was evaluated.
The animals used were of the species Mus musculus, strain BALB/c nude, age 6-8 weeks, and female. The body weight was 18-22 g. The number of animals was 90 mice, plus spare. The animal supplier was Shanghai BK Laboratory Animal Co., LTD.
The tumor cells were routinely subcultured twice weekly by trypsin-EDTA treatment.
Each mouse was inoculated subcutaneously at the right flank with MDA-MB-436 tumor cells (1×10^7) in 0.1 ml of PBS supplemented with BD Matrigel (1:1) for tumor development. The prophylactic treatments were started 13 days before inoculation. The therapeutic treatments were started on day 9 after tumor inoculation when the average tumor size reached approximately 81 mm^3. Each group consisted of 10 tumor-bearing mice. The testing article was administrated to the mice according to the predetermined regimen as shown in the experimental design Table 21 (prophylactic) and Table 22 (therapeutic).
The major endpoint was to see if the tumor growth could be delayed or mice could be cured. Tumor size was measured twice weekly in two dimensions using a caliper, and the volume was expressed in mm^3 using the formula: V=0.5 a×b^2 where a and b are the long and short diameters of the tumor, respectively. The tumor size was then used for calculations of both T-C and T/C values. T-C was calculated with T as the time (in days) required for the mean volume of treatment group tumors to reach 600 mm^3, and C as the time (in days) for the mean volume of control group tumors to reach the same size. The T/C value (in percent) is an indication of antitumor effectiveness; T and C are the mean volumes of the treated and control groups, respectively, on a given day.
ΔTGI was calculated for each group using the formula: ΔTGI (%)=[1−(Ti−T0)/(Vi−V0)]×100; Ti is the average tumor volume of a treatment group on a given day, T0 is the average tumor volume of the treatment group on the day of treatment start, Vi is the average tumor volume of the vehicle control group on the same day with Ti, and V0 is the average tumor volume of the vehicle group on the day of treatment start.
Tumor pictures were taken and tumor weight was measured at the study termination. T/Cweight value (in percent) was calculated using the formula: T/Cweight%=Tweight/Cweight×100% where Tweight and Cweight were the mean tumor weights of the treated and vehicle control groups, respectively.
Statistical analyses of differences in tumor volume and tumor weight among the groups were conducted on the data obtained when the average tumor volume of vehicle-therapeutic group reached 2,000 mm^3 (Day 71 after inoculation).
One-way ANOVA was performed to compare tumor volume and tumor weight among groups, and when a significant F-statistics (a ratio of treatment variance to the error variance) was obtained, comparisons between groups were carried out with Dunnett t-tests.

[5] = test system: Molt-4-luc leukemia; type: in vivo
Description: Temperature and relative humidity were monitored daily.
The tumor cells were routinely subcultured twice weekly.
Whole body and metastatic bioluminescence were measured and recorded.
Tumor growth curve was plotted with median relative bioluminescence.

[6] = 2014 Aug. 27, insulin dose 0.01 nM
[7] = 2014 Aug. 27, insulin dose 0.03 nM
[8] = 2014 Aug. 27, insulin dose 0.09 nM
[9] = 2014 Aug. 27, insulin dose 0.27 nM
[10] = 2014 Aug. 27, insulin dose 7.41 nM
[11] = 2014 Aug. 27, insulin dose 22.2 nM
[12] = 2014 Aug. 27, insulin dose 66.7 nM
[13] = 2014 Aug. 27, insulin dose 200 nM
[14] = 2014 Aug. 28, insulin dose 0.27 nM
[15] = 2014 Aug. 28, insulin dose 2.47 nM
[16] = 2014 Aug. 28, insulin dose 7.41 nM
[17] = 2014 Aug. 28, insulin dose 22.2 nM
[18] = 2014 Aug. 28, insulin dose 66.7 nM
[19] = 2014 Aug. 28, insulin dose 200 nM
[20] = 2014 Jul. 11, insulin dose 0.82 nM
[21] = 2014 Jul. 11, insulin dose 7.41 nM
[22] = 2014 Jul. 11, insulin dose 22.22 nM
[23] = 2014 Jul. 11, insulin dose 66.67 nM
[24] = 2014 Jul. 11, insulin dose 200 nM
[25] = 2014 Jul. 14, insulin dose 0.09 nM
[26] = 2014 Jul. 14, insulin dose 0.82 nM
[27] = 2014 Jul. 14, insulin dose 2.47 nM
[28] = 2014 Jul. 14, insulin dose 7.41 nM
[29] = 2014 Jul. 14, insulin dose 22.2 nM
[30] = 2014 Jul. 14, insulin dose 66.7 nM
[31] = 2014 Jul. 14, insulin dose 200 nM
[32] = Insulin dose 0.09 nM, duplicates
[33] = Insulin dose 7.41 nM, duplicates
[34] = Insulin dose 22.2 nM, duplicates
[35] = Insulin dose 66.7 nM, duplicates
[36] = Insulin dose 200 nM, duplicates
[37] = day 111 after the cell injection, positive control, treatment right after cell injection, of 6 mice

In the case of Insulin, the “% Activity” value [1, 6] is reported as 5% and 6%, the Count [1, 6] is reported as 2169 and 2178 and the “% Activity” value [1, 7] is reported as −8% and −12%. For the same compound, the Count [1, 7] was 2065 and 2030, the “% Activity” value [1, 8] was 6% and 4% and the Count [1, 8] was 2177 and 2166. For the same compound, the “% Activity” value [1, 9] was 2% and −7%, the Count [1, 9] was 2145 and 2075 and the Count ([1]; 2014 Aug. 27, insulin dose 0.82 nM) was 2390 and 2146. For the same compound, the Count ([1]; 2014 Aug. 27, insulin dose 2.47 nM) was 2131 and 2284, the “% Activity” value [1, 10] was 54% and 42% and the Count [1, 10] was 2579 and 2483. For the same compound, the “% Activity” value [1, 11] was 53% and 61%, the Count [1, 11] was 2573 and 2636 and the “% Activity” value [1, 12] was 90% and 93%. The Count [1, 12] was 2877 and 2903, the “% Activity” value [1, 13] was 52% and 59% and the Count [1, 13] was 2565 and 2617. For the same compound, the Count ([1]; 2014 Aug. 28, insulin dose 0.01 nM) was 1918 and 2052, the Count ([1]; 2014 Aug. 28, insulin dose 0.03 nM) was 2281 and 2003 and the Count ([1]; 2014 Aug. 28, insulin dose 0.09 nM) was 2130 and 2378. The “% Activity” value [1, 14] was 19% and 24%, the Count [1, 14] was 2258 and 2306 and the Count ([1]; 2014 Aug. 28, insulin dose 0.82 nM) was 2111 and 2261. The “% Activity” value [1, 15] was 13% and 22%, the Count [1, 15] was 2208 and 2286 and the “% Activity” value [1, 16] was 39% and 41%. The Count [1, 16] was 2427 and 2442, the “% Activity” value [1, 17] was 84% and 48% and the Count [1, 17] was 2812 and 2503. For the same compound, the “% Activity” value [1, 18] was 75% and 85%, the Count [1, 18] was 2736 and 2827 and the “% Activity” value [1, 19] was 85% and 56%. For the same compound, the Count [1, 19] was 2813 and 2574, the Count ([1]; 2014 Jul. 11, insulin dose 0.09 nM) was 760 and 587 and the Count ([1]; 2014 Jul. 11, insulin dose 0.27 nM) was 709 and 761. The “% Activity” value [1, 20] was 28% and 17%, the Count [1, 20] was 800 and 746 and the Count ([1]; 2014 Jul. 11, insulin dose 2.47 nM) was 736 and 828. The “% Activity” value [1, 21] was 47% and 70%, the Count [1, 21] was 884 and 992 and the “% Activity” value [1, 22] was 47% and 72%. The Count [1, 22] was 887 and 1000, the “% Activity” value [1, 23] was 68% and 72% and the Count [1, 23] was 979 and 1000. For the same compound, the “% Activity” value [1, 24] was 68% and 70%, the Count [1, 24] was 980 and 989 and the “% Activity” value [1, 25] was 3% and 11%. The Count [1, 25] was 1033 and 1075, the Count ([1]; 2014 Jul. 14, insulin dose 0.27 nM) was 1118 and 1018 and the “% Activity” value [1, 26] was 12%. For the same compound, the Count [1, 26] was 1082 and 1083, the “% Activity” value [1, 27] was 55% and 32% and the Count [1, 27] was 1317 and 1191. For the same compound, the “% Activity” value [1, 28] was 59% and 41%, the Count [1, 28] was 1335 and 1238 and the “% Activity” value [1, 29] was 61% and 63%. The Count [1, 29] was 1347 and 1362, the “% Activity” value [1, 30] was 64% and 42% and the Count [1, 30] was 1364 and 1243. The “% Activity” value [1, 31] was 97% and 106%, the Count [1, 31] was 1545 and 1591 and the Count ([1]; Insulin dose 0.03 nM, duplicates) was 2039 and 1067. The “% Activity” value [1, 32] was −3% and −4%, the Count [1, 32] was 2101 and 2091 and the Count ([1]; Insulin dose 0.27 nM, duplicates) was 2196 and 2340. The Count ([1]; Insulin dose 0.82 nM, duplicates) was 2069 and 2263, the “% Activity” value [1, 33] was 31% and 39% and the Count [1, 33] was 2395 and 2466. For the same compound, the “% Activity” value [1, 34] was 58% and 63%, the Count [1, 34] was 2633 and 2673 and the “% Activity” value [1, 35] was 70% and 61%. For the same compound, the Count [1, 35] was 2736 and 2660, the “% Activity” value [1, 36] was 80% and 62% and the Count [1, 36] was 2820 and 2663. It also gave an EC50 ([1]; run of 2014 Aug. 27) of 2.54 nM, an EC50 ([1]; run of 2014 Aug. 28) of 6.94 nM and an EC50 ([1]; run of 2014 Aug. 29) of 6.66 nM. For the same compound, the EC50 ([1]; run of 2014 Jul. 11) was 3.96 nM and the EC50 ([1]; run of 2014 Jul. 14) was 2.46 nM.
For CC(C)c1c(C(=O)Nc2ccccc2)c(-c2ccccc2)c(-c2ccc(F)cc2)n1CC[C@@H](O)C[C@@H](O)CC(=O)O [Atorvastatin], the “body weight of the DIO mice” value [2] was “significantly decrease”, the blood glucose level ([2]; DIO mice, 0-8 weeks) was “significantly decrease” and the insulin sensibility ([2]; DIO mice, 0-8 weeks) was “significantly increase”.
With CC(=O)O[C@H]1C(=O)[C@@]2(C)[C@H]([C@H](OC(=O)c3ccccc3)[C@]3(O)C[C@H](OC(=O)[C@H](O)[C@@H](NC(=O)c4ccccc4)c4ccccc4)C(C)=C1C3(C)C)[C@]1(OC(C)=O)CO[C@@H]1C[C@@H]2O [Paclitaxel] the mortality ([3]; Group 6, days after the start of therapeutic treatment, possibly due to drug toxicity) was “died on day 20 and day 63”, the “BWL > 20%” value ([3]; mouse, in vivo) was 0 and the “Subtotal mice# lost/N” value ([3]; therapeutic arm) was 2/10. The mortality ([3]; therapeutic arm, number of animals, n=10) was 2^a (D20, 63)^b, the “Tumor Size at day 71” value ([4]; therapeutic arm, Mean ± SEM at day 71 after inoculation) was 637 ± 211 mm^3 and the “Tumor Weight at day 78” value ([4]; therapeutic arm, Mean ± SEM at day 78 after inoculation) was 0.67 ± 0.23 g. The ΔTGI ([4]; therapeutic arm, day 71) was 71%, the “T-C at 600 mm^3” value ([4]; therapeutic arm, tumor growth delay at tumor size 600 mm^3) was 23 days and the T/C ([4]; therapeutic arm, tumor volume at day 71 vs vehicle-therapeutic) was 31%. The T/Cweight ([4]; therapeutic arm, tumor weight at day 78 vs vehicle-therapeutic) was 39.6%, the “antitumor activity” value ([4]; therapeutic arms) was “statistically significant antitumor activity” and the “tumor growth delay at tumor size of 600 mm^3” value ([4]; therapeutic arms, compared with the vehicle group) was 23 days. The T/C value ([4]; therapeutic arms, day 71) was 31% and the mean tumor size ([4]; therapeutic arms, day 71 after tumor inoculation, vehicle 2,025, Paclitaxel 1.5 mg/kg, BIW×9 weeks) was 637 mm^3.
With O=P1(N(CCCl)CCCl)NCCCO1 (stereo not shown) [Cyclophosphamide] the “survival until day 150” value ([5]; all mice of the group) was “died”, the median relative bioluminescence ([5]; day 50 after cell implantation, treatment given right after cell injection (therapeutic / positive control group), vehicle 153.43) was 1.40 and the “Animals # with bioluminescence signal” value [5, 37] was 1. The “Survival animals #” value [5, 37] was 5, the survival of mice ([5]; day 111 after the cell injection, six mice per group, vehicle: two mice died) was “one mouse died” and the “day at which one mouse died” value ([5]; mouse, in vivo) was 57 days.

Source: patent US10335446B2, “Methods of treating diseases using grape proteins” (priority 2015, dated 2019)
